# Reference: BindingDB's records for doi:10.1016/S0960-894X(97)00175-3 (1997)
# pIC50: −log10 of the molar value.
# Biological target: Squalene monooxygenase (Sus scrofa)
# Experiment: In vitro inhibition of pig liver microsomal squalene epoxidase (SE) by measuring the extend of cholesterol radiolabeling after incubation with [14C]mevalonate
row,Compound,pIC50
1,"CCN(C/C=C/C#CC(C)(C)C)Cc1cccc(OC[Si](C)(C)c2ccc(N=[N+]=[N-])cc2)c1 [(3-{[(4-Azido-phenyl)-dimethyl-silanyl]-methoxy}-benzyl)-(6,6-dimethyl-hept-2-en-4-ynyl)-ethyl-amine]",6.28
2,"CCN(CC#Cc1ccc(N=[N+]=[N-])cc1)Cc1cccc(OCc2cc(-c3ccsc3)cs2)c1 [[3-(4-Azido-phenyl)-prop-2-ynyl]-[3-([3,3']bithiophenyl-5-ylmethoxy)-benzyl]-ethyl-amine]",6.02
3,"CCN(CC#Cc1cccc(N=[N+]=[N-])c1)Cc1cccc(OCc2cc(-c3ccsc3)cs2)c1 [[3-(3-Azido-phenyl)-prop-2-ynyl]-[3-([3,3']bithiophenyl-5-ylmethoxy)-benzyl]-ethyl-amine]",6.57
4,"CCN(CC#Cc1ccccc1)Cc1cccc(OCc2cc(-c3ccsc3)cs2)c1 [[3-([3,3']Bithiophenyl-5-ylmethoxy)-benzyl]-ethyl-(3-phenyl-prop-2-ynyl)-amine]",7.00
5,"CCN(CC#Cc1ccccc1N=[N+]=[N-])Cc1cccc(OCc2cc(-c3ccsc3)cs2)c1 [[3-(2-Azido-phenyl)-prop-2-ynyl]-[3-([3,3']bithiophenyl-5-ylmethoxy)-benzyl]-ethyl-amine]",< 4.00
